According to publication PMC10535741, “Styrylpyridinium Derivatives for Fluorescent Cell Imaging” (Pharmaceuticals, 2023):
Read-outs that look alike come from different tables or passages of the source.

Assays:
in vitro [1] = format: cell-based, rat; details: rat
Source text: (§1) For selected compounds, 6a–6f, we performed a determination of the cytotoxicity in a wider variety of cancer and non-cancerous cell lines (see Table S2, Supplementary Materials) in order to learn the characteristic features of selectivity or the similarity of biological properties.
(§2) The HT-1080 (human connective tissue fibrosarcoma, ATCC® CCL-121™), MH-22A (mouse hepatocarcinoma, ECACC Cat. No. 96121721), A-549 (human lung carcinoma, ATCC® CCL-185™), NIH3T3 (Swiss Albino mouse embryo fibroblast, ECACC Cat. No. 93061524), Hek293 (human embryonic kidney, ATCC® CRL-1573™), BHK-21 (Syrian hamster kidney, ATCC® CCL-10™), A-431 (human epidermoid carcinoma, ATCC® CRL-1555™), Saos-2 (human osteosarcoma, ATCC® HTB-85™), HeLa (human epitheloid cervix carcinoma, ATCC® CCL-2™), U937 (human myeloid leukaemia, ATCC® CRL-1593.2™), C6 (rat glioma, ATCC® CCL-107™), and B16-F10 (murine melanoma, ATCC® CRL-6475™) cell lines were obtained from the American Type Culture Collection (ATCC) and European Collection of Authenticated Cell Cultures (ECACC).
HT-1080, MH-22A, A-549, NIH3T3, BHK-21, A-431, HeLa, and B16-F10 cells were cultured in Dulbecco’s Modified Eagle’s Medium (DMEM) with 2 mM glutamine and 10% foetal bovine serum (FBS). Hek293 cells were cultured in Eagle’s Minimum Essential Medium with 10% foetal bovine serum. U937 cells were cultured in RPMI-1640 Medium with 2 mM glutamine and 10% foetal bovine serum. C6 cells were cultured in Ham’s F12 Medium with 2 mM glutamine and 10% foetal bovine serum. Saos-2 cells were cultured in McCoy’s 5a Medium with 2 mM glutamine and 10% foetal bovine serum. The cells were incubated at 37 °C with 5% CO2, 95% air, and complete humidity. Once ~90% confluence was reached, they were detached using 0.05% trypsin/EDTA and counted. The cells were plated at optimally determined densities for the logarithmic phase of growth. These cells were then suspended at a concentration of 4000 cells/well for HT-1080, MH-22A, A-549, NIH3T3, BHK-21, A-431, HeLa, B16-F10, Hek293, and Saos-2 cells and a concentration of 9000 cells/well for U937, C6, Hek293, and GM08402 cells and added onto a 96-well plate. For background absorption, some wells remained cell free, i.e., as a blank control. Cells were incubated for 72 h at 37 °C and 5% CO2 where they were exposed to a media containing serial dilutions of the investigated compounds (n = 3). Cell viability was measured using the 3-(4,5-dimethylthiazol-2-yl)-2,5-diphenyl-tetrazolium bromide (MTT) assay. In brief, after incubating with compounds, the culture medium was removed and fresh medium with 0.2 mg/mL MTT was added to each well of the plate. After incubation (3 h, 37 °C, 5% CO2), the medium with MTT solution was removed and replaced with 200 µL DMSO and 25 µL Sorenson’s glycine buffer (glycine 0.1 M, NaCl 0.1 M, pH: 10.5 with 0.1 M NaOH). The plate was shaken for 15 min at room temperature and the optical density (OD) of the wells was determined using a multichannel spectrophotometer (Thermo Scientific Multiskan EX) at 540 nm. The quantity of the control cells was taken in calculations as 100%. The IC50 value was calculated using the program Graph Pad Prism® 3.0. […]

in vitro [2] = format: cell-based, human; details: human, MTT, 72 h
Source text: as §1, §2
(§3) HT-1080, MH-22A, A-549, NIH3T3, BHK-21, A-431, HeLa, and B16-F10 cells were cultured in Dulbecco’s Modified Eagle’s Medium (DMEM) with 2 mM glutamine and 10% foetal bovine serum (FBS). Hek293 cells were cultured in Eagle’s Minimum Essential Medium with 10% foetal bovine serum. U937 cells were cultured in RPMI-1640 Medium with 2 mM glutamine and 10% foetal bovine serum. C6 cells were cultured in Ham’s F12 Medium with 2 mM glutamine and 10% foetal bovine serum. Saos-2 cells were cultured in McCoy’s 5a Medium with 2 mM glutamine and 10% foetal bovine serum. The cells were incubated at 37 °C with 5% CO2, 95% air, and complete humidity. Once ~90% confluence was reached, they were detached using 0.05% trypsin/EDTA and counted. The cells were plated at optimally determined densities for the logarithmic phase of growth. These cells were then suspended at a concentration of 4000 cells/well for HT-1080, MH-22A, A-549, NIH3T3, BHK-21, A-431, HeLa, B16-F10, Hek293, and Saos-2 cells and a concentration of 9000 cells/well for U937, C6, Hek293, and GM08402 cells and added onto a 96-well plate. For background absorption, some wells remained cell free, i.e., as a blank control. Cells were incubated for 72 h at 37 °C and 5% CO2 where they were exposed to a media containing serial dilutions of the investigated compounds (n = 3). Cell viability was measured using the 3-(4,5-dimethylthiazol-2-yl)-2,5-diphenyl-tetrazolium bromide (MTT) assay. In brief, after incubating with compounds, the culture medium was removed and fresh medium with 0.2 mg/mL MTT was added to each well of the plate. After incubation (3 h, 37 °C, 5% CO2), the medium with MTT solution was removed and replaced with 200 µL DMSO and 25 µL Sorenson’s glycine buffer (glycine 0.1 M, NaCl 0.1 M, pH: 10.5 with 0.1 M NaOH). The plate was shaken for 15 min at room temperature and the optical density (OD) of the wells was determined using a multichannel spectrophotometer (Thermo Scientific Multiskan EX) at 540 nm. The quantity of the control cells was taken in calculations as 100%. The IC50 value was calculated using the program Graph Pad Prism® 3.0.
(§4) The HT-1080 (human connective tissue fibrosarcoma, ATCC® CCL-121™), MH-22A (mouse hepatocarcinoma, ECACC Cat.No. 96121721), A-549 (human lung carcinoma, ATCC® CCL-185™), NIH 3T3 (mouse Swiss Albino embryo fibroblast, ECACC Cat.No. 93061524), Hek293 (human embryonic kidney, ATCC® CRL-1573™), BHK-21 (hamster Syrian kidney, ATCC® CCL-10™), A-431 (human epidermoid carcinoma, ATCC® CRL-1555™), Saos-2 (human oste osarcoma, ATCC® HTB-85™) HeLa (human epitheloid cervix carcinoma, ATCC® CCL-2™), U937 (human myeloid leukaemia, ATCC® CRL-1593.2™), C6 (rat glioma, ATCC® CCL-107™), B16-F10 (murine melanoma, ATCC® CRL-6475™) cell lines were obtained from American Type Culture Collection (ATCC) and European Collection of Authenticated Cell Cultures […]
(§5) Table S2. […]

in vitro [3] = format: cell-based, mouse; details: mouse
Source text: as §1, §2, §3, §4, §5

[4] = cancer cell line, MTT, 72 h, read-out: Cytotoxicity IC50 C6
[5] = cancer cell line, read-out: Cytotoxicity IC50 A-431
[6] = cancer cell line, read-out: Cytotoxicity IC50 A-549
[7] = cancer cell line, read-out: Cytotoxicity IC50 HeLa
[8] = cancer cell line, read-out: Cytotoxicity IC50 Saos-2
[9] = cancer cell line, read-out: Cytotoxicity IC50 U937
[10] = non-cancerous cell line, read-out: Cytotoxicity IC50 Hek-293
[11] = non-cancerous cell line, MTT, 72 h, read-out: Cytotoxicity IC50 NIH3T3

CCCCCCCCCCCC[n+]1ccc(C=Cc2cc(OC)c(OC)c(OC)c2)cc1.[Br-] [Compound 6a, 4-(3,4,5-trimethoxystyryl)-N-dodecylpyridinium bromide]
IC50 at 72 h (in vitro [1]; [4]): 0.86 µg/mL | IC50 at 72 h (in vitro [2]; [5]): 0.87 µg/mL | IC50 at 72 h (in vitro [2]; [6]): 0.87 µg/mL | IC50 at 72 h (in vitro [2]; [7]): 0.59 µg/mL | IC50 at 72 h (in vitro [2]; [8]): 0.37 µg/mL | IC50 at 72 h (in vitro [2]; [9]): 1.01 µg/mL | IC50 at 72 h (in vitro [2]; [10]): 0.22 µg/mL | IC50 at 72 h (in vitro [3]; [11]): 1.23 µg/mL

CCCCCCCCCCCCCCCC[n+]1ccc(C=CC=Cc2ccc(OC)cc2)cc1.[Br-] [Compound 6c, 1-hexadecyl-4-(4-(4-methoxyphenyl)buta-1,3-dien-1-yl)pyridin-1-ium bromide]
IC50 at 72 h (in vitro [1]): 0.6 µg/mL | IC50 at 72 h (in vitro [3]): 0.24 µg/mL

CCCCCCCCCCCC[n+]1ccc(C=Cc2cc3c4c(c2)CCCN4CCC3)cc1.[Br-] [Compound 6d, 1-dodecyl-4-(2-(2,3,6,7-tetrahydro-1H,5H-pyrido[3,2,1-ij]quinolin-9-yl)vinyl)pyridin-1-ium bromide]
IC50 at 72 h (in vitro [1]; [4]): 0.129 µg/mL | IC50 at 72 h (in vitro [2]; [5]): 0.098 µg/mL | IC50 at 72 h (in vitro [2]; [6]): 0.055 µg/mL | IC50 at 72 h (in vitro [2]; [7]): 0.055 µg/mL | IC50 at 72 h (in vitro [2]; [8]): 0.79 µg/mL | IC50 at 72 h (in vitro [2]; [9]): 0.044 µg/mL | IC50 at 72 h (in vitro [2]; [10]): 0.012 µg/mL | IC50 at 72 h (in vitro [3]; [11]): 0.056 µg/mL

CCCCCCCCCCCCCCCC[n+]1ccc(C=CC=Cc2cc3c4c(c2)CCCN4CCC3)cc1.[Br-] [Compound 6e, 1-hexadecyl-4-(4-(2,3,6,7-tetrahydro-1H,5H-pyrido[3,2,1-ij]quinolin-9-yl)buta-1,3-dien-1-yl)pyridin-1-ium bromide]
IC50 at 72 h (in vitro [1]; [4]): 3.4 µg/mL | IC50 at 72 h (in vitro [2]; [5]): 1.9 µg/mL | IC50 at 72 h (in vitro [2]; [6]): 3 µg/mL | IC50 at 72 h (in vitro [2]; [7]): 1.3 µg/mL | IC50 at 72 h (in vitro [2]; [8]): 3.6 µg/mL | IC50 at 72 h (in vitro [2]; [9]): 2.4 µg/mL | IC50 at 72 h (in vitro [2]; [10]): 1.5 µg/mL | IC50 at 72 h (in vitro [3]; [11]): 3.2 µg/mL
